Data from US6720330B2, “Somatostatin antagonists and agonists that act at the SST subtype 2 receptor” (Pfizer Inc., priority 2000, dated 2004).
Where no end group is shown, it is not given here.

System: somatostatin receptor
Test: Rat pituitary assay for somatostatin receptor antagonists (cAMP content of GH4C1 cells)
Format: cell-based
Conditions: GH4C1 pituitary cell line; 100 nM VIP, 10 nM somatostatin 14

Row | Compound | cAMP content of the GH4C1 cells
1 | C[C@H](N)C(=O)NCC(=O)N[C@H]1CSSC[C@@H](C(=O)O)NC(=O)[C@H](CO)NC(=O)[C@H]([C@@H](C)O)NC(=O)[C@H](Cc2ccccc2)NC(=O)[C@H]([C@@H](C)O)NC(=O)[C@H](CCCCN)NC(=O)[C@H](Cc2c[nH]c3ccccc23)NC(=O)[C@H](Cc2ccccc2)NC(=O)[C@H](Cc2ccccc2)NC(=O)[C@H](CC(N)=O)NC(=O)[C@H](CCCCN)NC1=O [somatostatin, somatostatin 14] | partial inhibition
2 | vasoactive intestinal peptide (HSDAVFTDNYTRLRKQMAVKKYLNSILN; ends and bridges not checked; UniProt P01282 125-152, looked up) [VIP, endogenous peptide that stimulates GH secretion] | increased cAMP content
